# Assay: In vitro flux of rivastigmine liquid across human skin only
# Assay type: in vitro ADME
# Conditions: rivastigmine liquid infinite dose 0.5 ml/cm^2
# Experimental: The flux of rivatsigmine liquid (“infinite-dose” of 0.5 ml/cm^2) across systems prepared using different rate controlling membranes (with different vinyl acetate contents and different thicknesses) with or without a 5 mg/cm^2 silicone face adhesive was assessed in an in vitro flux study, as shown below.
smiles,measurement,value
"CCN(C)C(=O)Oc1cccc([C@H](C)N(C)C)c1 [Rivastigmine, (S)-3-[1-(dimethylamino)ethyl]phenyl ethylmethylcarbamate]","Rivastigmine steady-state flux, human skin only",32 ± 14 μg/cm^2/hr
